The values below come from ChEMBL document CHEMBL1201862, “PubChem BioAssay data set” (2004).

Structures are written as SMILES.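 Grown in 96-well plates, cells were treated for 48 hours with each compound at five concentrations. Insufficient inhibition: endpoint recorded as highest concentration tested. Abbreviation: GI50, concentration required for 50% inhibition of growth.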 Activity calls are given as the source filed them. Cut-off read from the data, not from the text of the source: active = GI50 up to about 1.1 µM and inactive = higher.

Test systems include IGROV-1; OVCAR-4; HCT-15; MDA-MB-435; SNB-19; NCI-H23; NCI/ADR-RES; BT-549; OVCAR-3; RPMI-8226; CCRF-CEM; HCT-116; HT-29; MDA-MB-231; HOP-62; OVCAR-5; NCI-H522; HCC 2998.
Common to all, as to assay: NCI-60 cell line screen, 48 h

Take `C[N+](C)(C)CC1CCCCCCCCCCC1=O` (stereo not drawn): the GI50 with IGROV-1 was > 100 µM (inactive); in the assay with OVCAR-4, > 100 µM (inactive); in the assay on HCT-15, over 100 µM; in the assay on MDA-MB-435 it was > 100 µM (inactive); in the assay on SNB-19, > 100 µM (inactive); in the assay on NCI-H23, > 100 µM (inactive). Moreover, the GI50 with NCI/ADR-RES, with BT-549, with OVCAR-3, in the assay on RPMI-8226, with CCRF-CEM and in the assay on HCT-116 was > 100 µM (inactive) in each case. Also, the GI50 in the assay with HT-29 was > 100 µM (inactive); with MDA-MB-231 it was > 100 µM (inactive); with HOP-62, 39.4 µM (inactive); with OVCAR-5, > 100 µM (inactive); with NCI-H522 it was > 100 µM (inactive); with HCC 2998, > 100 µM (inactive).
Take `Nc1nc(Cl)c(N)c(NCC2(CO)CC(Cc3ccccc3)C2)n1` (stereo not drawn): the GI50 was > 78.5 µM (inactive) with IGROV-1; 48.1 µM (inactive) with OVCAR-4; over 79.3 µM with HCT-15; 16.6 µM (inactive) with MDA-MB-435; > 66.4 µM (inactive) with SNB-19; 0.865 µM (active) in the assay on NCI-H23. Besides, the GI50 with NCI/ADR-RES was 15.1 µM (inactive); in the assay on BT-549, 42.5 µM (inactive); in the assay on OVCAR-3, 26.3 µM (inactive); in the assay on RPMI-8226, 2.41 µM (inactive); in the assay on CCRF-CEM, 23.1 µM (inactive); in the assay on HCT-116, 3.15 µM (inactive). Also, the GI50 in the assay on HT-29 is 70.6 µM (inactive); with MDA-MB-231, 61.4 µM (inactive); in the assay on HOP-62, > 49.3 µM (inactive); in the assay with OVCAR-5, > 100 µM (inactive); with NCI-H522, 28.5 µM (inactive); with HCC 2998, > 93.5 µM (inactive).
Take `CC(=O)O[C@H]1[C@@H](N2CCCCC2)C[C@H]2[C@@H]3CC=C4C[C@@H](N5CCCC5)CC[C@]4(C)[C@H]3CC[C@@]21C`: the GI50 is > 100 µM (inactive) with IGROV-1; > 100 µM (inactive) in the assay with OVCAR-4; 19.4 µM in the assay on HCT-15; 28.6 µM (inactive) in the assay with MDA-MB-435; > 100 µM (inactive) with SNB-19; > 100 µM (inactive) in the assay with NCI-H23. The GI50 with NCI/ADR-RES was > 100 µM (inactive); with BT-549 it was > 100 µM (inactive); in the assay with OVCAR-3 it was > 100 µM (inactive); with RPMI-8226 it was 26.5 µM (inactive); in the assay with CCRF-CEM, 31.9 µM (inactive); in the assay with HCT-116, 64.3 µM (inactive). Moreover, the GI50 was 15.3 µM (inactive) in the assay on HT-29; > 100 µM (inactive) with MDA-MB-231; 49.8 µM (inactive) with HOP-62; 48.6 µM (inactive) in the assay on OVCAR-5; > 100 µM (inactive) with NCI-H522; 14.3 µM (inactive) with HCC 2998.
For `COc1cc2c(cc1OCc1ccccc1)NC(=O)[C@@H]1C[C@@H](O)CN1C2=O`, the GI50 with IGROV-1 is > 100 µM (inactive); with OVCAR-4, > 100 µM (inactive); with HCT-15, over 100 µM; with MDA-MB-435, > 100 µM (inactive); in the assay on SNB-19, > 100 µM (inactive); in the assay on NCI-H23, > 100 µM (inactive). Besides, the GI50 in the assay with NCI/ADR-RES, with BT-549, with OVCAR-3, with RPMI-8226, in the assay on CCRF-CEM and with HCT-116 was > 100 µM (inactive) each time. The GI50 is > 100 µM (inactive) in the assay on HT-29; 75 µM (inactive) in the assay on MDA-MB-231; 47.6 µM (inactive) in the assay on HOP-62; > 100 µM (inactive) with OVCAR-5; > 100 µM (inactive) with NCI-H522; > 100 µM (inactive) in the assay with HCC 2998.
Consider `COc1cnc2cc(C(=O)O)c3c([N+](=O)[O-])cccc3c2c1`, for which the GI50 in the assay with IGROV-1 was > 100 µM (inactive); in the assay with OVCAR-4, > 100 µM (inactive); with HCT-15, over 100 µM; with MDA-MB-435, > 100 µM (inactive); in the assay with SNB-19 it was > 100 µM (inactive); with NCI-H23, > 100 µM (inactive). Further, the GI50 in the assay on NCI/ADR-RES, with BT-549, in the assay with OVCAR-3, with RPMI-8226, in the assay with CCRF-CEM and in the assay with HCT-116 was > 100 µM (inactive) each time. The GI50 in the assay with HT-29, with MDA-MB-231, in the assay with HOP-62, in the assay on OVCAR-5, with NCI-H522 and in the assay with HCC 2998 was > 100 µM (inactive) throughout.
Regarding `O=C1C=C(c2ccccc2)O/C1=C/C(=O)c1ccc(Cl)cc1`, the GI50 in the assay on IGROV-1 was 18.3 µM (inactive); in the assay with OVCAR-4 it was 15.6 µM (inactive); in the assay on HCT-15 it was 22 µM; with MDA-MB-435 it was 15.2 µM (inactive); in the assay on SNB-19, 35.5 µM (inactive); with NCI-H23 it was > 10 µM (inactive). Moreover, the GI50 in the assay on NCI/ADR-RES is 22.1 µM (inactive); with BT-549, 16.2 µM (inactive); in the assay on OVCAR-3, 17.5 µM (inactive); with RPMI-8226, 3.33 µM (inactive); in the assay with CCRF-CEM it was 3.35 µM (inactive); in the assay with HCT-116, 16.4 µM (inactive). In addition, the GI50 in the assay on HT-29 was 18.2 µM (inactive); with MDA-MB-231, 17.2 µM (inactive); in the assay with HOP-62 it was 30.5 µM (inactive); in the assay with OVCAR-5 it was 17.6 µM (inactive); in the assay with NCI-H522 it was 11.1 µM (inactive); in the assay with HCC 2998 it was 15.4 µM (inactive).
`CCOC(=O)[C@@]12NN=N[C@@H]1[C@H]1CO[C@H](c3ccccc3)N1C2=O`: the GI50 was 5.24 µM (inactive) in the assay on IGROV-1; 16.5 µM (inactive) in the assay on OVCAR-4; 6.62 µM in the assay with HCT-15; 11.1 µM (inactive) in the assay on MDA-MB-435; 10.2 µM (inactive) with SNB-19; 12.5 µM (inactive) in the assay with NCI-H23. The GI50 in the assay on NCI/ADR-RES is 22.1 µM (inactive); with BT-549, 11.7 µM (inactive); in the assay with OVCAR-3 it was 8.53 µM (inactive); with RPMI-8226, 3.24 µM (inactive); in the assay with CCRF-CEM, 7.1 µM (inactive); in the assay on HCT-116 it was 15 µM (inactive). Also, the GI50 with HT-29 is 13.5 µM (inactive); with MDA-MB-231, 12.2 µM (inactive); with HOP-62, 14.5 µM (inactive); in the assay on OVCAR-5, 14.2 µM (inactive); in the assay with NCI-H522, 3.01 µM (inactive); in the assay with HCC 2998, 12.9 µM (inactive).
Consider `Cc1cc(=O)n2nc(CSc3nnc(Sc4cc(O)ccc4O)s3)sc2n1`, for which the GI50 in the assay on IGROV-1 was > 100 µM (inactive); with OVCAR-4 it was 54.7 µM (inactive); in the assay with HCT-15 it was over 100 µM; with MDA-MB-435 it was 18.5 µM (inactive); in the assay with SNB-19, > 100 µM (inactive); in the assay on NCI-H23, > 100 µM (inactive). For the same compound, the GI50 with NCI/ADR-RES was > 100 µM (inactive); in the assay on BT-549, 39.3 µM (inactive); in the assay with OVCAR-3 it was 34.4 µM (inactive); in the assay on RPMI-8226, 24.5 µM (inactive); in the assay with CCRF-CEM it was 22.6 µM (inactive); in the assay on HCT-116 it was 19.7 µM (inactive). For the same compound, the GI50 with HT-29 was > 100 µM (inactive); in the assay on MDA-MB-231, 34.9 µM (inactive); with HOP-62, > 100 µM (inactive); with OVCAR-5 it was > 100 µM (inactive); in the assay on NCI-H522, 20.4 µM (inactive); in the assay with HCC 2998 it was > 100 µM (inactive).
As to `Oc1ccccc1-n1nc2ccc3nonc3c2n1`, the GI50 in the assay with IGROV-1 is > 100 µM (inactive); with OVCAR-4 it was > 100 µM (inactive); with HCT-15, 51.3 µM; in the assay with MDA-MB-435 it was > 100 µM (inactive); in the assay on SNB-19, > 100 µM (inactive); in the assay on NCI-H23, > 100 µM (inactive). The GI50 with NCI/ADR-RES, in the assay with BT-549, with OVCAR-3, with RPMI-8226, in the assay with CCRF-CEM and in the assay on HCT-116 was > 100 µM (inactive) throughout. For the same compound, the GI50 with HT-29 is > 100 µM (inactive); in the assay with MDA-MB-231, > 100 µM (inactive); in the assay with HOP-62, 90.2 µM (inactive); with OVCAR-5 it was > 100 µM (inactive); in the assay with NCI-H522 it was > 100 µM (inactive); in the assay with HCC 2998, 40.9 µM (inactive).
For the compound `C/N=C(N)/N=C(\N)Nc1cc2ccccc2c2ccccc12`, the GI50 with IGROV-1 was 17.9 µM (inactive); with OVCAR-4, 14.7 µM (inactive); in the assay with HCT-15 it was 16.7 µM; in the assay on MDA-MB-435, 15.9 µM (inactive); in the assay with SNB-19 it was 15.8 µM (inactive); with NCI-H23, 17.1 µM (inactive). Besides, the GI50 was 20.6 µM (inactive) in the assay with NCI/ADR-RES; 15.1 µM (inactive) with BT-549; 16.7 µM (inactive) in the assay with OVCAR-3; 15.5 µM (inactive) with RPMI-8226; 7.74 µM (inactive) in the assay on CCRF-CEM; 12.9 µM (inactive) in the assay on HCT-116. In addition, the GI50 was 15 µM (inactive) with HT-29; 13.3 µM (inactive) in the assay on MDA-MB-231; 17.5 µM (inactive) in the assay on HOP-62; 17.5 µM (inactive) in the assay with OVCAR-5; 13.1 µM (inactive) with NCI-H522; 2.44 µM (inactive) with HCC 2998.
For `CCCNC(=O)CCC(C)[C@H]1CCC2C3C(C[C@H](OC(C)=O)[C@@]21C)[C@@]1(C)CCC2(C[C@H]1C[C@H]3OC(C)=O)OOC1(CCCCC1)OO2` (stereo partly drawn), the GI50 in the assay on IGROV-1 was 0.478 µM (active); with OVCAR-4, 1.74 µM (inactive); with HCT-15 it was 3.68 µM; in the assay with MDA-MB-435 it was 2.23 µM (inactive); in the assay on SNB-19 it was 7.18 µM (inactive); in the assay with NCI-H23, 1.12 µM (inactive). The GI50 was 2.39 µM (inactive) in the assay on NCI/ADR-RES; 2.55 µM (inactive) with BT-549; 1.87 µM (inactive) with OVCAR-3; 0.923 µM (active) in the assay on RPMI-8226; 1.73 µM (inactive) in the assay on CCRF-CEM; 2.93 µM (inactive) in the assay on HCT-116. Also, the GI50 was 3.96 µM (inactive) with HT-29; 1.94 µM (inactive) in the assay with MDA-MB-231; 0.261 µM (active) in the assay on HOP-62; 2.67 µM (inactive) in the assay on OVCAR-5; 0.473 µM (active) in the assay on NCI-H522; 2.7 µM (inactive) in the assay on HCC 2998.
